“Also recorded” adds a separate entry of the source. Like-named read-outs stand apart in the source and are kept apart here.
Assays:
[1] = biological target: T1, dopamine transporter (high-affinity uptake of [^3 H]dopamine into striatal nerve endings) (Rattus norvegicus, UniProt P23977); assay: inhibition of high-affinity uptake of [^3 H]dopamine into striatal nerve endings (synaptosomes); assay type: biochemical
T1 construct: striatal nerve endings (synaptosomes); from tissue; host or cells: striatal nerve endings (synaptosomes)

[2] = test system: rats trained to discriminate cocaine
[3] = test system: rats trained to discriminate cocaine; assay: animal or person; details: Rattus norvegicus, ip, read-out: ED50 (50% cocaine-appropriate responding)
rats = assay: casual observation of animals treated with 2c; details: 0.8 mg/kg 2c; 24 hours following administration
dopamine transporter = dopamine transporter (Rattus norvegicus, UniProt P23977); assay: displacement of [^3 H]mazindol binding from rat striatal membranes
[4] = 0.05 mg/kg, 30 min, mean ± S.E.M.
[5] = 0.05 mg/kg, 120 min, mean ± S.E.M.
[6] = 0.05 mg/kg, 240 min, mean ± S.E.M.
[7] = 0.1 mg/kg, 30 min, mean ± S.E.M.
[8] = 0.1 mg/kg, 120 min, mean ± S.E.M.
[9] = 0.1 mg/kg, 240 min, mean ± S.E.M.
[10] = 0.2 mg/kg, 30 min, mean ± S.E.M.
[11] = 0.2 mg/kg, 240 min, mean ± S.E.M.
[12] = 0.4 mg/kg, 30 min, mean ± S.E.M.
[13] = 0.4 mg/kg, 120 min, mean ± S.E.M.
[14] = 0.4 mg/kg, 240 min, mean ± S.E.M.
[15] = 0.8 mg/kg, 30 min, mean ± S.E.M.

dopamine transporter, sequence (P23977 whole entry): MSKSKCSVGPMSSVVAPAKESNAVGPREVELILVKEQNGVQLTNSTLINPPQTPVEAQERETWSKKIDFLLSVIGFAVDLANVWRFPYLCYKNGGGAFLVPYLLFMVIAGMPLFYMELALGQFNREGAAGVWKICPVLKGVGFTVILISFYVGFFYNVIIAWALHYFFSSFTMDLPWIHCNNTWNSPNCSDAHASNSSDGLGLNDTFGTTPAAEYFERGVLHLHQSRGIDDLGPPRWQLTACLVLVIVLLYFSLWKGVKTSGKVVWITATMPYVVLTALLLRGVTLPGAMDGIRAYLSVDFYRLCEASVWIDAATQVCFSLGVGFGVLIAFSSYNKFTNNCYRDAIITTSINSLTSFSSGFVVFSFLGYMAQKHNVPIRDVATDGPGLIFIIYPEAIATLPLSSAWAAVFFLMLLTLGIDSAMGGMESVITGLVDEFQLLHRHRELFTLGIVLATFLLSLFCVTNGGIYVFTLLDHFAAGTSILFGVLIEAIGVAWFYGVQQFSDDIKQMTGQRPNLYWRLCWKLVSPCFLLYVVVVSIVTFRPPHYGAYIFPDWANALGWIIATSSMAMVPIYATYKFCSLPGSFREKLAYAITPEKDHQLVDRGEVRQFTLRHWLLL
T1 sequence (P23977 whole entry): as above

C=C[C@H]1[C@@H](c2ccc(Cl)cc2)C[C@@H]2CC[C@H]1N2C [Compound 2c, 3β-(4-Chlorophenyl)-2β-vinyltropane]
IC50 [1]: 3.2 ± 0.6 nM | n/N (animals completing 20 responses / tested) ([2]; 0.05 mg/kg, 30 min): 7/7 | % Drug responses [2, 4]: 19 ± 4% | Rate (responses/min) [2, 4]: 29.6 ± 9 responses/min | n/N (animals completing 20 responses / tested) ([2]; 0.05 mg/kg, 120 min): 7/7 | % Drug responses [2, 5]: 22 ± 14% | Rate (responses/min) [2, 5]: 18.4 ± 6 responses/min | n/N (animals completing 20 responses / tested) ([2]; 0.05 mg/kg, 240 min): 7/7 | % Drug responses [2, 6]: 14 ± 14% | Rate (responses/min) [2, 6]: 28.3 ± 5 responses/min | n/N (animals completing 20 responses / tested) ([2]; 0.1 mg/kg, 30 min): 7/7 | % Drug responses [2, 7]: 40 ± 17% | Rate (responses/min) [2, 7]: 37.1 ± 6 responses/min | n/N (animals completing 20 responses / tested) ([2]; 0.1 mg/kg, 120 min): 7/7 | % Drug responses [2, 8]: 75 ± 16% | Rate (responses/min) [2, 8]: 25.7 ± 5 responses/min | n/N (animals completing 20 responses / tested) ([2]; 0.1 mg/kg, 240 min): 7/7 | % Drug responses [2, 9]: 61 ± 17% | Rate (responses/min) [2, 9]: 23.5 ± 4 responses/min | n/N (animals completing 20 responses / tested) ([2]; 0.2 mg/kg, 30 min): 7/7 | % Drug responses [2, 10]: 83 ± 10% | Rate (responses/min) [2, 10]: 26.2 ± 6 responses/min | n/N (animals completing 20 responses / tested) ([2]; 0.2 mg/kg, 120 min): 7/7 | % Drug responses ([2]; 0.2 mg/kg, 120 min, mean): 100% | Rate (responses/min) ([2]; 0.2 mg/kg, 120 min, mean ± S.E.M.): 46.8 ± 9 responses/min | n/N (animals completing 20 responses / tested) ([2]; 0.2 mg/kg, 240 min): 7/7 | % Drug responses [2, 11]: 98 ± 1% | Rate (responses/min) [2, 11]: 47.9 ± 10 responses/min | n/N (animals completing 20 responses / tested) ([2]; 0.4 mg/kg, 30 min): 7/7 | % Drug responses [2, 12]: 99 ± 1% | Rate (responses/min) [2, 12]: 52.8 ± 9 responses/min | n/N (animals completing 20 responses / tested) ([2]; 0.4 mg/kg, 120 min, * intense stereotypic response, failed to complete session): 3/5 | % Drug responses [2, 13]: 72 ± 28% | Rate (responses/min) [2, 13]: 24.9 ± 18 responses/min | n/N (animals completing 20 responses / tested) ([2]; 0.4 mg/kg, 240 min, * intense stereotypic response, failed to complete session): 4/5 | % Drug responses [2, 14]: 91 ± 9% | Rate (responses/min) [2, 14]: 23.6 ± 18 responses/min | n/N (animals completing 20 responses / tested) ([2]; 0.8 mg/kg, 30 min): 7/7 | % Drug responses [2, 15]: 93 ± 5% | Rate (responses/min) [2, 15]: 33.5 ± 9 responses/min | % Drug responses ([2]; 0.8 mg/kg, 120 min): 95% | Rate (responses/min) ([2]; 0.8 mg/kg, 120 min): 7.7 responses/min | n/N (animals completing 20 responses / tested) ([2]; 0.8 mg/kg, 120 min, * intense stereotypic response, failed to complete session): 1/7 | % Drug responses ([2]; 0.8 mg/kg, 240 min): 100% | n/N (animals completing 20 responses / tested) ([2]; 0.8 mg/kg, 240 min, * intense stereotypic response, failed to complete session): 3/7 | Rate (responses/min) ([2]; 0.8 mg/kg, 240 min, mean ± S.E.M.): 39.1 ± 1 responses/min | complete cocaine-like responding ([2]; 0.2 and 0.4 mg/kg, 30 min injection period): induced complete cocaine-line responding in all animals | response rates ([2]; in words, across test doses): stable across the different test doses of 2c, with the exception of the highest dose (0.8 mg/kg) of 2c which reduced response rates | substitution for the cocaine cue / drug-appropriate responding ([2]; in words, dose-dependence over the tested doses): dose-dependent substitution for the cocaine cue | duration of action ([2]; in words, injection interval 30-240 min): long duration of action | ED50 ([3]; 0.5 h): 0.11 mg/kg | ED50 ([3]; 2 h): 0.08 mg/kg | ED50 ([3]; 4 h): 0.09 mg/kg | hyperactivity (rats): still hyperactive 24 hours following administration | IC50 (dopamine transporter): 1.2 ± 0.3 nM | potency compared with 1d (dopamine transporter; relative to ester counterpart 1d): slightly more potent than the "Win" type compound 1d; also recorded: slightly more potent than its ester counterpart 1d
